# Experimental data published in ChEMBL document CHEMBL3400138, “Synthesis of 3-azabicyclo[3.2.2]nonanes and their antiprotozoal activities” (Bioorg Med Chem Lett, 2015).
# pIC50: −log10 of the molar value. Activity calls are given as the source filed them. No cut-off for these calls is given here.
# Columns and labels:
# [1] = Selectivity index, ratio of CC50 for rat L6 cells to IC50 for Trypanosoma brucei rhodesiense STIB900; format: functional
# L6 = test: Cytotoxicity against rat L6 cells after 72 hrs by alamar blue assay; format: cell-based; conditions: L6, 72 h
# Plasmodium berghei [2] = test: Antiplasmodial activity against GFP-transfected Plasmodium berghei ANKA infected in NMRI mouse assessed as mean survival day at 50 mg/kg, ip administered 4, 24, 48 and 72 hrs post infection (reference value: 4 to 6 days); format: functional; conditions: route intraperitoneal
# Plasmodium falciparum = test: Antiplasmodial activity against chloroquine and pyrimethamine resistant Plasmodium falciparum K1 infected in human red blood cells assessed as reduction in parasite viability after 48 hrs by [3H]-hypoxanthine incorporation assay; format: functional, organism-based
# [3] = Selectivity index, ratio of CC50 for rat L6 cells to IC50 for chloroquine and pyrimethamine resistant Plasmodium falciparum K1; format: functional
# [4] = system: Trypanosoma brucei rhodesiense; test: Antitrypanosomal activity against Trypanosoma brucei rhodesiense STIB900 bloodstream forms after 72 hrs by alamar blue assay; format: functional, organism-based; conditions: STIB900, 72 h
# Plasmodium berghei [5] = test: Antiplasmodial activity against GFP-transfected Plasmodium berghei ANKA infected in NMRI mouse assessed as reduction in parasitemia at 50 mg/kg, ip administered 4, 24, 48 and 72 hrs post infection by FACS analysis; format: functional; conditions: route intraperitoneal
# Enterococcus faecalis = test: Antibacterial activity against Enterococcus faecalis ATCC 14506 at 100 ug after 24 hrs; format: functional
# Candida albicans = test: Antifungal activity against Candida albicans ATCC 10231 at 100 ug after 48 hrs; format: functional, organism-based
# Klebsiella oxytoca = test: Antibacterial activity against Klebsiella oxytoca ATCC 8724 at 100 ug after 24 hrs; format: functional, organism-based
# Candida tropicalis = test: Antifungal activity against Candida tropicalis ATCC 13803 at 100 ug after 48 hrs; format: functional, organism-based
# Plasmodium berghei [6] = test: Antiplasmodial activity against GFP-transfected Plasmodium berghei ANKA infected in NMRI mouse assessed as mean survival day at 200 mg/kg, po administered 24 hrs post infection (reference value: 3 days); format: functional
# Plasmodium berghei [7] = test: Antiplasmodial activity against GFP-transfected Plasmodium berghei ANKA infected in NMRI mouse assessed as reduction in parasitemia administered intraperitoneally 4, 24, 48 and 72 hrs post infection by FACS analysis; format: functional
# Staphylococcus aureus = test: Antibacterial activity against Staphylococcus aureus ATCC 25923 at 100 ug after 24 hrs; format: functional
# [8] = target: Voltage-gated inwardly rectifying potassium channel KCNH2 (Homo sapiens, UniProt Q12809); test: Inhibition of human ERG expressed in HEK293 cells assessed as reduction in tail current at membrane potential of +20 mV; format: cell-based
# Plasmodium berghei [9] = test: Antiplasmodial activity against GFP-transfected Plasmodium berghei ANKA infected in NMRI mouse assessed as mean survival day at 100 mg/kg, po administered 4, 24, 48 and 72 hrs post infection (reference value: 4 days); format: functional
# hERG (KCNH2) [10] = target: T1, hERG (KCNH2) (Homo sapiens, UniProt Q12809); test: Inhibition of human ERG expressed in HEK293 cells assessed as reduction in tail current at 3 uM and at membrane potential of +0 mV; format: cell-based; conditions: HEK293 cells that express hERG
# Enterococcus faecium = test: Antibacterial activity against Enterococcus faecium ATCC 6057 at 100 ug after 24 hrs; format: functional; conditions: ATCC 6057, 24 h, read-out: DIZ
# Plasmodium berghei [11] = test: Antiplasmodial activity against orally dosed GFP-transfected Plasmodium berghei ANKA infected in NMRI mouse assessed as reduction in parasitemia by FACS analysis; format: functional
# Raoultella planticola = test: Antibacterial activity against Raoultella planticola ATCC 15050 at 100 ug after 24 hrs; format: functional, organism-based
# [12] = system: Mycolicibacterium smegmatis; test: Antimycobacterial activity against Mycobacterium smegmatis ATCC 14468 assessed as inhibition of bacterial growth after 72 hrs by MTT dye based microbroth dilution assay; format: functional; conditions: ATCC 14468, 72 h
# Plasmodium berghei [13] = test: Antiplasmodial activity against GFP-transfected Plasmodium berghei ANKA infected in NMRI mouse assessed as reduction in parasitemia at 20 mg/kg, ip administered 4, 24, 48 and 72 hrs post infection by FACS analysis; format: functional; conditions: route intraperitoneal
# Mus musculus = test: Toxicity in GFP-transfected Plasmodium berghei ANKA infected NMRI mouse at 200 mg/kg, po administered 24 hrs post infection; format: organism-based; parameters: dose 200 mg/kg, route oral; conditions: in vivo
# Candida parapsilosis = test: Antifungal activity against Candida parapsilosis ATCC 90018 at 100 ug after 48 hrs; format: functional, organism-based
# Plasmodium berghei [14] = test: Antiplasmodial activity against GFP-transfected Plasmodium berghei ANKA infected in NMRI mouse assessed as mean survival day at 100 mg/kg, po administered 24 hrs post infection (reference value: 3 days); format: functional
# [15] = Half life in rat at 10 mg/kg, iv; format: ADME, organism-based; parameters: dose 10 mg/kg, route intravenous; conditions: in vivo
# Plasmodium berghei [16] = test: Antiplasmodial activity against GFP-transfected Plasmodium berghei ANKA infected in NMRI mouse assessed as reduction in parasitemia at 100 mg/kg, po administered 24 hrs post infection by FACS analysis; format: functional
# Plasmodium berghei [17] = test: Antiplasmodial activity against GFP-transfected Plasmodium berghei ANKA infected in NMRI mouse assessed as reduction in parasitemia at 10 mg/kg, ip administered 4, 24, 48 and 72 hrs post infection by FACS analysis; format: functional; conditions: route intraperitoneal
# [18] = system: Staphylococcus epidermidis; test: Antibacterial activity against Staphylococcus epidermidis ATCC 12228 at 100 ug after 24 hrs; format: functional, organism-based
# Plasmodium berghei [19] = test: Antiplasmodial activity against GFP-transfected Plasmodium berghei ANKA infected in NMRI mouse assessed as mean survival day at 20 mg/kg, ip administered 4, 24, 48 and 72 hrs post infection (reference value: 4 days); format: functional; conditions: route intraperitoneal
# Plasmodium berghei [20] = test: Antiplasmodial activity against GFP-transfected Plasmodium berghei ANKA infected in NMRI mouse assessed as reduction in parasitemia at 100 mg/kg, po administered 4, 24, 48 and 72 hrs post infection by FACS analysis; format: functional
# Plasmodium berghei [21] = test: Antiplasmodial activity against GFP-transfected Plasmodium berghei ANKA infected in NMRI mouse assessed as mean survival day at 10 mg/kg, ip administered 4, 24, 48 and 72 hrs post infection (reference value: 4 days); format: functional; conditions: route intraperitoneal
# Bacillus subtilis = test: Antibacterial activity against Bacillus subtilis ATCC 6051 at 100 ug after 24 hrs; format: functional, organism-based
# Leishmania sp. = test: Antiparasitic activity against Leishmania sp.; format: functional, organism-based
# Plasmodium berghei [22] = test: Antiplasmodial activity against GFP-transfected Plasmodium berghei ANKA infected in NMRI mouse assessed as reduction in parasitemia at 200 mg/kg, po administered 24 hrs post infection by FACS analysis; format: functional
# Trypanosoma = test: Antiparasitic activity against Trypanosoma sp.; format: functional, organism-based
# Proteus mirabilis = test: Antibacterial activity against Proteus mirabilis ATCC 14153 at 100 ug after 24 hrs; format: functional; conditions: ATCC 14153, 24 h, read-out: DIZ
# hERG (KCNH2) [23] = target: T1, hERG (KCNH2); test: Inhibition of human ERG expressed in HEK293 cells assessed as reduction in tail current at 3 uM and at membrane potential of +20 mV; format: cell-based; conditions: HEK293 cells that express hERG
# Escherichia coli = test: Antibacterial activity against Escherichia coli ATCC 25922 at 100 ug after 24 hrs; format: functional; conditions: ATCC 25922, 24 h, read-out: DIZ
# Voltage-gated inwardly rectifying potassium channel KCNH2, sequence (Q12809 whole entry): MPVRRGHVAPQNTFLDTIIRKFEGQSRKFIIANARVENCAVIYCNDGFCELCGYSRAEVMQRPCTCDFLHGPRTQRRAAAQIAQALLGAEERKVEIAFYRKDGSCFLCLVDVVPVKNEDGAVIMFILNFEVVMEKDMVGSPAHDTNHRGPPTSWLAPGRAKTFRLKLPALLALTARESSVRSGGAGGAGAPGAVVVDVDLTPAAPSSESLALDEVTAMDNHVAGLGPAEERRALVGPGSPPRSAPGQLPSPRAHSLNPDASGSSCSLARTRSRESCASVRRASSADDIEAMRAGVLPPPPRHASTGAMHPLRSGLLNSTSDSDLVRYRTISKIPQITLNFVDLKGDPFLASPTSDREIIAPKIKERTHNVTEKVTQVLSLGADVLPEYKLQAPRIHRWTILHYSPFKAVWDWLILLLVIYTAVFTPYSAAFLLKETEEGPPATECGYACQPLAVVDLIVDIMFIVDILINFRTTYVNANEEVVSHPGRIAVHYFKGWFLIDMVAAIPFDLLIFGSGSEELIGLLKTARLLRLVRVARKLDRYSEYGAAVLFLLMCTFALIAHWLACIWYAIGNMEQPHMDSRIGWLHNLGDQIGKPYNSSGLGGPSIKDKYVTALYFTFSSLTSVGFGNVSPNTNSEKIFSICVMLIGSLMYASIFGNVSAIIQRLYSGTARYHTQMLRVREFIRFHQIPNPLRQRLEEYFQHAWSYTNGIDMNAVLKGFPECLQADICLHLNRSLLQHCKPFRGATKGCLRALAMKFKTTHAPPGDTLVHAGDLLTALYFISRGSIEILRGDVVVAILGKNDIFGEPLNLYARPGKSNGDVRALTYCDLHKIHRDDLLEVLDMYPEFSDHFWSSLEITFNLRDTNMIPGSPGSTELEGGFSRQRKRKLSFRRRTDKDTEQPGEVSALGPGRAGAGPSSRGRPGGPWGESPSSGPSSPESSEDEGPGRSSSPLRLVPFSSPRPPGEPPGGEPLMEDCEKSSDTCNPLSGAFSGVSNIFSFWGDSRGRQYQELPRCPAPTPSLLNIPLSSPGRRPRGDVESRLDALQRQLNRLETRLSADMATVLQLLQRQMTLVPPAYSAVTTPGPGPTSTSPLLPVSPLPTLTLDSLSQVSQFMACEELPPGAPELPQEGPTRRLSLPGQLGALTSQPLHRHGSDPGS
# T1 sequence (Q12809 whole entry): as above
compound,measurement,setting,value
Cl.Clc1ccc(C2CC3(N4CCCCC4)CCNC2C(c2ccc(Cl)cc2)C3)cc1 (racemic),Ratio IC50,[1],124
CN(C)C12CNCC(C(c3ccccc3)C1)C(c1ccccc1)C2.Cl (racemic),pIC50,L6,3.91
same,MSD,Plasmodium berghei [2],4 days
same,pIC50,Plasmodium falciparum,6.57
same,Ratio IC50,[3],452.2
same,pIC50,[4],5.80
same,Ratio IC50,[1],77.3
same,inhibition in vivo at 50 mg/kg,Plasmodium berghei [5],0%
Cl.c1ccc(C2CC3(N4CCOCC4)CNCC2C(c2ccccc2)C3)cc1 (racemic),pIC50,L6,4.36
same,pIC50,Plasmodium falciparum,6.19
same,Ratio IC50,[3],66.63
same,pIC50,[4],5.42
same,Ratio IC50,[1],11.3
Cl.c1ccc(C2CC3(N4CCCC4)CNCC2C(c2ccccc2)C3)cc1 (racemic),diameter of the inhibition zone (DIZ),Enterococcus faecalis,inactive
same,diameter of the inhibition zone (DIZ),Candida albicans,inactive
same,diameter of the inhibition zone (DIZ),Klebsiella oxytoca,inactive
same,diameter of the inhibition zone (DIZ),Candida tropicalis,inactive
same,MSD,Plasmodium berghei [6],16 days
same,inhibition,Plasmodium berghei [7],Dose-dependent effect
same,ED50,Plasmodium berghei [7]; ip,17 mg/kg
same,ED90,Plasmodium berghei [7]; ip,40 mg/kg
same,diameter of the inhibition zone (DIZ),Staphylococcus aureus,inactive
same,pIC50,L6,4.14
same,pIC50,[8],5.58
same,inhibition (INH),"[8]; human, hek293",Dose-dependent effect
same,MSD,Plasmodium berghei [2],15 days
same,MSD,Plasmodium berghei [9],18.6 days
same,inhibition at 3 µM,hERG (KCNH2) [10],45.9%
same,pIC50,Plasmodium falciparum,7.02
same,zone of inhibition at 100 µg/disc,Enterococcus faecium,10 mm
same,inhibition,Plasmodium berghei [11],Dose-dependent effect
same,ED50,Plasmodium berghei [11]; po,75 mg/kg
same,Ratio IC50,[3],767.7
same,diameter of the inhibition zone (DIZ),Raoultella planticola,inactive
same,MIC,[12],128 µg/mL
same,inhibition in vivo at 20 mg/kg,Plasmodium berghei [13],60.1%
same,Activity,Mus musculus,Toxic
same,diameter of the inhibition zone (DIZ),Candida parapsilosis,inactive
same,MSD,Plasmodium berghei [14],12 days
same,half-life,[15],18 min
same,inhibition in vivo at 100 mg/kg,Plasmodium berghei [16],70.5%
same,inhibition in vivo at 10 mg/kg,Plasmodium berghei [17],25.1%
same,pIC50,[4],6.00
same,diameter of the inhibition zone (DIZ),[18],inactive
same,MSD,Plasmodium berghei [19],10 days
same,inhibition in vivo at 100 mg/kg,Plasmodium berghei [20],97.7%
same,MSD,Plasmodium berghei [21],4 days
same,diameter of the inhibition zone (DIZ),Bacillus subtilis,inactive
same,Ratio IC50,[1],72.9
same,inhibition,Leishmania sp.,Active
same,inhibition in vivo at 200 mg/kg,Plasmodium berghei [22],66.1%
same,inhibition,Trypanosoma,Active
same,inhibition in vivo at 50 mg/kg,Plasmodium berghei [5],94.8%
same,zone of inhibition at 100 µg/disc,Proteus mirabilis,11 mm
same,inhibition at 3 µM,hERG (KCNH2) [23],54.8%
same,zone of inhibition at 100 µg/disc,Escherichia coli,10 mm
Cl.c1ccc(C2CC3(N4CCCCC4)CNCC2C(c2ccccc2)C3)cc1 (racemic),pIC50,L6,3.91
same,pIC50,Plasmodium falciparum,6.12
same,Ratio IC50,[3],163.1
same,pIC50,[4],5.69
same,Ratio IC50,[1],60.5
Cl.Clc1ccc(C2CC3(N4CCCC4)CNCC2C(c2ccc(Cl)cc2)C3)cc1 (racemic),pIC50,L6,5.04
same,pIC50,[4],6.59
same,Ratio IC50,[1],35
Cl.Clc1ccc(C2CC3(N4CCCCC4)CNCC2C(c2ccc(Cl)cc2)C3)cc1 (racemic),pIC50,L6,5.09
same,pIC50,Plasmodium falciparum,6.43
same,Ratio IC50,[3],21.86
same,pIC50,[4],6.49
same,Ratio IC50,[1],25.3
C[C@@H]1CC[C@H]2[C@@H](C)C(=O)O[C@@H]3O[C@@]4(C)CC[C@@H]1[C@]32OO4 [ARTEMISININ],pIC50,Plasmodium falciparum,8.19
CCN(CC)CCCC(C)Nc1ccnc2cc(Cl)ccc12 (stereo not given) [CHLOROQUINE],inhibition in vivo at 10 mg/kg,Plasmodium berghei [17],99.6%
same,MSD,Plasmodium berghei [21],20 days
NNC(=O)c1ccncc1 [ISONIAZID],MIC,[12],4 µg/mL
NC[C@H]1O[C@H](O[C@H]2[C@H](O)[C@@H](O[C@H]3O[C@H](CO)[C@@H](O)[C@H](N)[C@H]3O)[C@H](N)C[C@@H]2N)[C@H](O)[C@@H](O)[C@@H]1O [KANAMYCIN],zone of inhibition at 100 µg/disc,Proteus mirabilis,20 mm
same,zone of inhibition at 100 µg/disc,Escherichia coli,20 mm
CC1(C)S[C@@H]2[C@H](NC(=O)Cc3ccccc3)C(=O)N2[C@H]1C(=O)O [PENICILLIN G],zone of inhibition at 100 µg/disc,"Enterococcus faecalis; ATCC 14506, 24 h, read-out: DIZ",20 mm
same,zone of inhibition at 100 µg/disc,"Staphylococcus aureus; ATCC 25923, 24 h, read-out: DIZ",30 mm
same,zone of inhibition at 100 µg/disc,Escherichia coli,15 mm
NYSTATIN,inhibition zone (IZ),Candida tropicalis,20 mm
same,inhibition zone (IZ),Candida parapsilosis,25 mm
